Source: patent publication US11344601B2, “Tumor microenvironment-related target TAK1 and application thereof in inhibition of tumor” (Shanghai Institutes for Biological Sciences, Chinese …, priority 2017, dated 2022)
Values joined by “and” are separate entries in the source; they are usually repeats but may differ in a detail not shown here. Equal values may be shown once.

How the values were obtained:
[1] = system: prostate-derived stromal cell line PSC27 and epithelial cancer cell line PC3 xenograft tumors; assay: Preclinical chemotherapy trial, subcutaneous PC3/PSC27 tissue-recombinant tumors, terminal tumor volume; type: in vivo, ICR-SCID mice; conditions: for decrease in terminal tumor volume: mitoxantrone alone vs no drug (group 6 vs group 5); for further decrease in terminal tumor volume: inhibitor combined with mitoxantrone (MIT) vs mitoxantrone alone (group 8 vs group 6)
Protocol: All experimental mouse experiments were carried out in strict accordance with the relevant regulations of the Institutional animal care and use committee (IACUC) of the shanghai Institute of Life Sciences of the Chinese Academy of Sciences. ICR-SCID mice at an age of about 6 weeks (about 25 g in body weight) were used in this patent-related animal experiment. Stromal cells PSC27 and epithelial cells were mixed at a ratio of 1:4, with each implant containing 1.25×10^6 cells for tissue recombination. The transplant tumor was implanted into mice subcutaneously, and the animals were euthanized at the end of Week 8 after transplantation. The tumor volume was calculated according to the following formula: V=(π/6)×((l+w)/2)^3 (V, volume; l, length; w, width). Similarly, lung and breast cancer xenograft tumors were formed by tissue recombination with A549 (non-small cell lung cancer cell line) and W138 (lung fibroblast line), MDA-MB-231 (triple negative breast cancer cell line) and HBF1203 (breast fibroblast line), respectively.
In the preclinical chemotherapy trial, mice subcutaneously transplanted with tumors were fed standard experimental diet. After 2 weeks, the chemotherapeutics mitoxantrone (dose of 0.2 mg/kg) and/or SASP inhibitors (500 μl, dose of 10 mg/kg, RAD001, SB203580 and 5Z-7 were purchased from Tocris; LYTAK, purchased from Lilly Co ((Indianapolis, Ind.), 5 mg/kg) were administrated intraperitoneally. The timepoint was the first day of Week 3, 5, 7, and the whole course of treatment was composed of three cycles of administration, each cycle lasted for 2 weeks. After the course of treatment, mouse […] was collected for tumor measurement and histological analysis. Each mouse received cumulatively 0.6 mg mitoxantrone/kg body weight and 30 mg SASP inhibitor/kg body (15 mg/kg body weight for LYTAK1). Mice xenografted with lung cancer and breast cancer tumor received bleomycin (totally 0.3 mg/kg) and doxorubicin (totally 0.2 mg/kg), respectively. The timepoints and frequency were same as the administration of mitoxantrone. The chemotherapeutic trial was performed until the end of Week 8, and the mice were dissected immediately after death. The transplant tumors were collected and used for analysis in a pathological system.
In order to simulate clinical conditions as much as possible, the present inventor inoculated the subcutaneous site of immunodeficient mice with an admixture of prostate-derived stromal cell line PSC27 and epithelial cancer cell line PC3. The mice subsequently underwent a regimen of 8-week preclinical chemotherapy, which included three single- or double-drug treatments based on a series of pre-experimental data (FIGS. 64 and 65). In the absence of stromal cells, PC3 cells were still able to form tumors under screening pressure caused by chemotherapeutics, though their volumes were smaller than that generated in the case of concurrent inoculation of stromal cells and cancer cells. Such difference also objectively confirmed the tumor-promoting effect of the microenvironment (FIG. 66).

p38MAPK, JNK, ATM = assay: Western blot of JNK, p38MAPK and ATM phosphorylation in damaged stromal cells; type: cell-based, human; conditions: bleomycin and/or SB203580
Protocol: (§1) The nitrocellulose filter membrane was blocked at room temperature for 1 h in the blocking solution (TBST containing 5% skim milk powder (0.1% Tween-20 in TBS)), incubated overnight at 4° C. in a primary antibody solution, rinsed at TBST room temperature for 3 times, each for 2 min. The corresponding secondary antibody conjugated with HRP prepared with the blocking solution was added, the filter membrane was incubated at room temperature for 0.5 h. The filter membrane was rinsed with PBST at room temperature for 3 times, each for 2 min.

NF-κB complex = assay: NF-κB activation in bleomycin-treated stromal cells (nuclear translocation, luciferase reporter); type: cell-based, human; conditions: for NF-κB transcriptional activity (reporter vector): bleomycin plus inhibitor, luciferase reporter
Protocol: FIG. 22. The stromal cells pre-transduced with the NF-κB transcriptional luciferase reporter vector were treated with bleomycin and/or RAD001. The cells were collected on Day 7 and detected for the fluorescence signal intensity of the reporter vector.
FIG. 32. Detection of NF-kB transcriptional activity based on the reporter vector. Stromal cells were treated with bleomycin along with the PI3K small molecule inhibitor LY294002 (1 μM), Akt inhibitor MK-2206 (100 nM), mTOR inhibitor RAD001 (50 nM), p38 inhibitor SB203580 (10 μM) and TAK1 inhibitor 5Z-7 (500 nM), respectively, and cell lysates were used for determining luciferase activity.
The […] vector pBABE-puro-IκBα-mut (Super repressor) containing two phosphorylated mutant sites of IKK at S32A and S34A on the IκBα protein encoding sequence were used for transfection of lentivirus-packing cell line phoenix. Lentiviruses were subsequently used to infect PSC27 stromal cell line, whereas 1 μg/ml puromycin was used to screen positive clones. As another method, 5 μm of the small molecule inhibitor Bay11-7082 (purchased from Selleck) was used for NF-κB activity control. Stromal cells were subsequently exposed to several different forms of cytotoxicity, with the resulting phenotype recorded in time, and the relevant gene expression analyzed. The resulted conditioned culture medium produced from cells processed in this way was collected for various detection of epithelial cells.
Even so, is TAK1 activated indirectly by upstream DDR signaling associated with activation of a core transcription factor, NF-κB complex involved in the broad-spectrum expression of the SASP? The NF-κB complex was previously reported to be mediated by mono-ubiquitination of IκB kinase subunit γ (IKKγ) in cytoplasm. After isolating nucleus from cytoplasmic proteins using a kit, the inventor finds that TAK1 phosphorylation is associated with nuclear translocation of p50 and p65, the two main subunits of NF-κB complex (FIG. 4).

IL-8 = IL-8 protein expression of damaged stromal cells (Western blot, ELISA); type: cell-based, human; conditions: ELISA of extracellular fluid, bleomycin plus inhibitor
Protocol: FIG. 15. The stromal cells were collected on Day 7 after bleomycin and/or 5Z-7 treatment. The lysates were analyzed by Western blot for their phosphorylation levels of ATM and TAK1, and activation of TAK1 downstream substrate JN K and p38. IL-8, a chemokine was used as a marker secreted factor of SASP, whose expression level was simultaneously analyzed. FIG. 33. The extracellular fluid released by each group of cells were tested by ELISA to determine the protein expression level of the secreted factor IL-8.

mTOR = molecular target: T1, mTOR (Homo sapiens, UniProt P42345+P62942); assay: Western blot of Akt/mTOR pathway activation in bleomycin-treated stromal cells; type: cell-based
T1 construct: endogenous in cells; host or cells: PSC27 human prostate stromal cells
Protocol: as §1

PSC27 cells = assay: DNA damage response foci, colony formation, cell cycle arrest and SA-β-Gal in PSC27 cells; type: cell-based, human
Protocol: Experimental Treatment In Vitro • 100 nM docetaxel (DTX), 100 nM paclitaxel (PTX), 200 nM vincristine (VCR), 50 μg/ml bleomycin (BLEO), 1 μM mitoxantrone (MIT), or 10 Gy ^137CS ionizating radiation (γ-radiation at 743 rad/min, RAD) was added to the culture medium when PSC27 cells grown to 80% (PSC27-Pre) to produce cell damage. After drug treatment for 6 hours, the cells were simply washed by PBS for 3 times and kept in the culture medium for 7 to 10 days, followed by subsequent experiments. […] Immunofluorescence and Histochemical Analysis • Mouse monoclonal antibody anti-phospho-Histone H2A.X (Ser139) (clone JBW301, Millipore) or mouse monoclonal antibody anti-Phosphor-53BP1 (Cat #sc-135748, Santa Cruz), and secondary antibody Alexa Fluor® 488 (or 594)-conjugated F(ab′)2 were added sequentially to slides on which cells were fixed. Nuclei were counterstained with 2 μg/ml of 4′,6-diamidino-2-phenylindole (DAPI). The most representative image was selected from the 3 observation fields for data analysis and result presentation. FV1000 laser scanning confocal microscopy (Olympus) was used to obtain cellular confocal fluorescence images to determine the extent of DNA damage. • Antibody anti-TAK1 used for histological IHC staining in clinical prostate, non-small cell lung cancer patients and breast cancer patients, was purchased from Proteintech, idib.

TAK1 = molecular target: T2, TAK1 (Homo sapiens, UniProt O43318); assay: IP, in vitro kinase assay and Western blot of TAK1 activation in damaged PSC27 stromal cells; type: cell-based; conditions: PSC27 cells treated with IL-1α (20 ng/ml)
T2 construct: PSC27 cells were treated with bleomycin and cell lysates were subject to anti-p-TAK1-mediated IP precipitation; endogenous in cells; host or cells: PSC27 human prostate stromal cells
T2 sequence (O43318 1-606): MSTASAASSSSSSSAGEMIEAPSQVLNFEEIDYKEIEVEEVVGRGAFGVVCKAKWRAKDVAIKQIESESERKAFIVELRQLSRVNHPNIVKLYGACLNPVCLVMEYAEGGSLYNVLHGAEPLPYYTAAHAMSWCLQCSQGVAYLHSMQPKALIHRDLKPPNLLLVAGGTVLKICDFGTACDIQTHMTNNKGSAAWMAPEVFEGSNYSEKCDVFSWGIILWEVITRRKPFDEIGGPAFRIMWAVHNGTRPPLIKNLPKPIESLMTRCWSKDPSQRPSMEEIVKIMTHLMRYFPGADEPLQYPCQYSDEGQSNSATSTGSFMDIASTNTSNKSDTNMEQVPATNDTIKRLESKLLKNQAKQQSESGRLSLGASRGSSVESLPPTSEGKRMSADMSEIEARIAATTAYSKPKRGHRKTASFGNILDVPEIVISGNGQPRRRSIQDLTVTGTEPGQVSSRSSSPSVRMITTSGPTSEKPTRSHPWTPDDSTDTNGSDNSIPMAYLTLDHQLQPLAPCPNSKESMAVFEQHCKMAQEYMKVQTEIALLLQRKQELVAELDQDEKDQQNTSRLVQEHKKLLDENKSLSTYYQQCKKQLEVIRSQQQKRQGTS
Protocol: In the presence of the TAK1 inhibitor 5Z-7, PSC27 cells were treated with bleomycin and cell lysates were subject to anti-p-TAK1-mediated IP precipitation. IP products were analyzed by in vitro kinase assay, and MKK6 was used as TAK1 substrate. p38 phosphorylation was analyzed by Western blot with GAPDH as the loading control. In addition, IL-1α (20 ng/ml) was used to treat stromal cells and was further analyzed by similar IP and in vitro kinase assay.

## O=C1c2c(O)ccc(O)c2C(=O)c2c(NCCNCCO)ccc(NCCNCCO)c21 [mitoxantrone]
[1]; end of Week 8
  decrease in terminal tumor volume: 37%
[1]; end of Week 8, listed as MIT
  decrease in terminal tumor volume: 37% and 36%

## C[S+]([O-])c1ccc(-c2nc(-c3ccncc3)c(-c3ccc(F)cc3)[nH]2)cc1 (centres unmarked) [SB203580]
p38MAPK, JNK, ATM
  phosphorylation level of p38: significantly reduce
NF-κB complex
  NF-κB transcriptional activity (reporter vector): significantly reduced
[1]; end of Week 8
  further decrease in terminal tumor volume: 46%
IL-8
  chemokine IL-8 protein levels induced by DNA damage: significantly reduced

## CO[C@H]1C[C@@H]2CC[C@@H](C)[C@@](O)(O2)C(=O)C(=O)N2CCCC[C@H]2C(=O)O[C@H]([C@H](C)C[C@@H]2CC[C@@H](OCCO)[C@H](OC)C2)CC(=O)[C@H](C)/C=C(\C)[C@@H](O)[C@@H](OC)C(=O)[C@H](C)C[C@H](C)/C=C/C=C/C=C/1C [RAD001]
mTOR; bleomycin and/or RAD001, Day 7
  activation of mTOR substrates S6K1 and 4E-BP1: inhibition of S6K1 and 4E-BP1 activation
NF-κB complex; after DNA damage, RAD001 added to the medium
  phosphorylation of IKKβ, degradation of IRAK1 and IkBα, nuclear translocation of p65 and p50: largely abolished
NF-κB complex
  NF-κB transcriptional activity (reporter vector): significantly attenuated
[1]; end of Week 8
  further decrease in terminal tumor volume: 44%
PSC27 cells; bleomycin-damaged stromal cells in the presence of RAD001
  cell cycle arrest and SA-β-Gal activity: remained unaffected
PSC27 cells; bleomycin-treated cells, presence or absence of inhibitor
  single-cell level of DDR foci: remained unchanged

## NC1(c2ccc(-c3nc4ccn5c(=O)[nH]nc5c4cc3-c3ccccc3)cc2)CCC1 [MK-2206]
mTOR; simultaneous treatment of bleomycin and MK-2206
  activity of mTOR: significantly downregulated
NF-κB complex
  NF-κB transcriptional activity (reporter vector): significantly reduced
IL-8
  chemokine IL-8 protein levels induced by DNA damage: significantly reduced

## IL-1α: cytokine, known upstream regulatory factor for TAK1
TAK1
  TAK1/MKK6 interaction: significantly enhanced
  p38 kinase activity: significantly increased
